{
  "source": "patent US20150025131A1",
  "about": "(priority 2013, published 2015)",
  "key": {"[1]": {"system": "ROS production from mice peritoneal macrophages", "experiment": "Luminol enhanced chemiluminescence oxidative burst, mice peritoneal macrophages", "type": "cell-based", "details": "Mus musculus, Peritoneal macrophage, serum opsonized zymosan, read-out: Myeloperoxidase dependent Oxidative Burst (IC50 μg/mL) Macrophages", "experimental": "(§1) Intracellular effect was determined using human peripheral whole blood phagocytes and isolated neutrophils and from mice peritoneum macrophages, where luminol-enhanced chemillumenescence assay was applied. The effect on myeloperoxidase independent ROS production was determined using lucigenin on murine macrophages RAW.267 cells.\nTable 2. […] 267 cells (murine macrophages). DPI is used as standard drug. Reading presents mean±SD of three determinations.\nNMRI mice of 25 to 30 gm weight were injected aseptically with 1 mL of heat inactivated fetal bovine serum (FBS) in the peritoneum cavity, using sterile 1 mL syringe and mice were kept for further 72 h. […] Cells were counted and concentration was adjusted to 1×10^6/mL for chemiluminescence assay.\nLuminol enhanced chemiluminescence technique was applied to study the effect of compound on ROS from phagocytes, Using whole blood, neutrophil and macrophages Briefly, 25 μL diluted whole blood (1:50 dilution in sterile HBSS^++) or 25 μL of PMNs (1×10^6), or 25 μL of isolated macrophages (1×10^6) were incubated with 25 μL of compound in triplicates and using three different concentrations (1, 10 and 100 μg/mL) using white 96 wells plates. […] Results were monitored as relative light unit (RLU) reading, with peak and total integral values set with repeated scans at 60 seconds intervals, and 1 second points measuring time."}, "[2]": {"system": "ROS production from PMA activated RAW. 267 cells (murine macrophages)", "experiment": "Lucigenin enhanced (myeloperoxidase independent) oxidative burst", "type": "cell-based", "details": "Mus musculus, Macrophage", "experimental": "as §1, with “cells. […] Table 2. […] 267 cells (murine macrophages). DPI is used as standard drug. Reading presents mean±SD of three determinations.” for “cells.”"}},
  "note": "Read-outs that look alike come from different tables or passages of the source.",
  "data": [
    {"smiles": "COc1c(O)cc2oc(-c3ccc(O)c(O)c3)c(O)c(=O)c2c1O", "note": "[Patuletin, 3,5,7,3′,4′-pentahydroxy-6-methoxy flavones]", "values": [
      {"measurement": "IC50", "setting": "[1]", "result": 1.9, "unit": "µg/mL"},
      {"measurement": "IC50", "setting": "[2]; compared to DPI as standard drug, read-out: inhibition of extracellular ROS species (IC50), unit inferred", "result": 0.3, "unit": "µg/mL"},
      {"measurement": "IC50", "setting": "[2]; lucigenin enhanced, PMA activated RAW. 267 cells, read-out: Myeloperoxidase independent Oxidative Burst (IC50 μg/mL) on macrophages", "result": "0.3 ± 0.03", "unit": "µg/mL"}
    ]}
  ]
}
